# Measured values as given in US7572606B1 (Nereus Pharmaceuticals, Inc., priority 2005, dated 2009).
# Like-named read-outs stand apart in the source and are kept apart here.
# Tests used:
# CCRF-CEM = assay: NCI 60 cell line screen, sulforhodamine B, 48 h; assay type: cell-based, human; conditions: Leukemia
# Protocol: (§1) A detailed description of the screening procedure can be found at hypertext transfer protocol (http://) “dtp.nci.nih.gov/branches/btb/ivclsp.html.”
# (§2) In brief, each of the 60 human tumor cell lines were grown in RPMI 1640 medium, supplemented with 5% fetal bovine serum and 2 mM L-glutamine. Cells were plated at their appropriate density in 96-well microtiter plates and incubated at 37° C., 5% CO2, 95% air and 100% relative humidity. […] Cells were incubated for an additional 48 hours and a sulforhodamine B protein assay was used to estimate cell viability or growth.
# HDP-62 = assay: NCI 60 cell line screen, sulforhodamine B, 48 h; assay type: cell-based, human; conditions: HDP-62, Non-Small Cell Lung Cancer
# Protocol: as §1, §2
# HDP-92 = assay: NCI 60 cell line screen, sulforhodamine B, 48 h; assay type: cell-based, human
# Protocol: as §1, §2
# MALME-3M = assay: NCI 60 cell line screen, sulforhodamine B, 48 h; assay type: cell-based, human; conditions: Melanoma
# Protocol: as §1, §2
# NCI-H322M = assay: NCI 60 cell line screen, sulforhodamine B, 48 h; assay type: cell-based, human; conditions: Non-Small Cell Lung Cancer
# Protocol: as §1, §2
# NCI-H460 = assay: NCI 60 cell line screen, sulforhodamine B, 48 h; assay type: cell-based, human; conditions: NCI-H460, Non-Small Cell Lung Cancer
# Protocol: as §1, §2
# SF-295 = assay: NCI 60 cell line screen, sulforhodamine B, 48 h; assay type: cell-based, human; conditions: SF-295, CNS Cancer
# Protocol: as §1, §2
# SK-OV-3 = assay: NCI 60 cell line screen, sulforhodamine B, 48 h; assay type: cell-based, human; conditions: SK-OV-3, Ovarian Cancer
# Protocol: as §1, §2
# SW-620 = assay: NCI 60 cell line screen, sulforhodamine B, 48 h; assay type: cell-based, human; conditions: SW-620, Colon Cancer
# Protocol: as §1, §2
# U251 = assay: NCI 60 cell line screen, sulforhodamine B, 48 h; assay type: cell-based, human; conditions: U251, CNS Cancer
# Protocol: as §1, §2
# tGROV1 = assay: NCI 60 cell line screen, sulforhodamine B, 48 h; assay type: cell-based, human; conditions: tGROV1, Ovarian Cancer
# Protocol: as §1, §2
# PANC-1 = assay: Cell growth inhibition, resazurin, 48 h; assay type: cell-based; conditions: Homo sapiens; PANC-1, 48 h drug exposure
# CCD-27sk = assay: Cytotoxic activity, 48 h, normal fibroblasts; assay type: cell-based; conditions: CCD-27sk normal human fibroblasts
# Thrombin = Thrombin (Homo sapiens, UniProt P00734); assay: Specificity: inhibition of other proteolytic enzymes; assay type: biochemical
# NF-κB/Luc 293 cells = assay: Viability of reporter cells, resazurin, 24 hr; assay type: cell-based, human; conditions: at the EC50 concentration of the luciferase assay
# [1] = tested on: Caspase-3 activity in Jurkat cells; assay: Caspase-3 activity assay (EnzChek); assay type: cell-based, human; conditions: EC50 concentration, 19 hours
# Protocol: Jurkat cells were plated at 2×10^6 cells/3 mL per well in a 6-well plate and incubated at 37° C., 5% (v/v) CO2 and 95% (v/v) humidity. […] Bhalla, et al., Blood 82:3133 (1993). […] Cells treated with 0.25% DMSO served as the negative control. The cells were collected by centrifugation and the media removed. Cell pellets were processed for the Caspase-3 activity assay as described in the manufacturer's protocol (EnzChek Caspase-3 Assay Kit from Molecular Probes (E-13183; see Appendix G, which form a part of this application and is also available at hypertext transfer protocol on the worldwide web at “probes.com/media/pis/mp13183.pdf.”. In brief, cell pellets were lysed on ice, mixed with the EnzChek Caspase-3 components in a 96-well plate, and then incubated in the dark for 30 minutes prior to reading fluorescence of cleaved benzyloxycarbonyl-DEVD-AMC using a Packard Fusion with λex=485 nm and λem=530 nm filters. Protein concentrations for lysates were determined using the BCA Protein Assay Kit (Pierce) and these values were used for normalization.
# PARP in Jurkat cells = assay: PARP cleavage, western blot; assay type: cell-based, human; conditions: 100 nM Salinosporamide A 2-24 hrs; […] nM Staurosporine 4 hrs
# [2] = tested on: LeTx-induced cytotoxicity of RAW264.7 cells; assay: cells; assay type: cell-based, murine
# [3] = tested on: VEGF-induced migration of multiple myeloma cells; assay: Transwell migration assay; assay type: cell-based
# Protocol: The compounds disclosed herein inhibit angiogenesis. […] The other compounds disclosed herein are tested in a transwell migration assay and inhibit migration.
# [4] = target: T1, chymotrypsin-like activity of rabbit muscle 20S proteasome (Oryctolagus cuniculus, UniProt G1T4Q9); assay: In vitro inhibition of 20S proteasome, suc-LLVY-AMC
# T1 sequence (G1T4Q9 1-263): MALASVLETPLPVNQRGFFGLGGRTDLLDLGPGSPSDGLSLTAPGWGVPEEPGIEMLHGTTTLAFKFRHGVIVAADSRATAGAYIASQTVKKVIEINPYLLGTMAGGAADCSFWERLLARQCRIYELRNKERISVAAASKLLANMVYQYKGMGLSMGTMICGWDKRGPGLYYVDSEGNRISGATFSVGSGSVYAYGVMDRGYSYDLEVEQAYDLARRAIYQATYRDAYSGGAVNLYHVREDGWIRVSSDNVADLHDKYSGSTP
# [5] = HDP-92, Non-Small Cell Lung Cancer
smiles,measurement,setting,value
"C[C@@]12OC(=O)[C@]1([C@@H](O)[C@@H]1C=CCCC1)NC(=O)[C@@H]2CCCl [Formula II-16, Salinosporamide A]",Log10 G150,CCRF-CEM,<-8.00 Molar
same,Log10 TGI,CCRF-CEM,<-8.00 Molar
same,Log10 G150,HDP-62,<-8.00 Molar
same,Log10 TGI,HDP-62,-4.89 Molar
same,Log10 G150,HDP-92; [5],<-8.00 Molar
same,Log10 TGI,HDP-92; [5],-7.77 Molar
same,CC50,"HDP-92; Homo sapiens, 60 cell, read-out: Log10 LC50 (converted)",4.37 µM
same,Log10 G150,MALME-3M,<-8.00 Molar
same,Log10 TGI,MALME-3M,<-8.00 Molar
same,Log10 G150,NCI-H322M,<-8.00 Molar
same,Log10 TGI,NCI-H322M,-5.48 Molar
same,Log10 G150,NCI-H460,<-8.00 Molar
same,Log10 TGI,NCI-H460,-6.97 Molar
same,Log10 G150,SF-295,<-8.00 Molar
same,Log10 TGI,SF-295,<-8.00 Molar
same,Log10 G150,SK-OV-3,<-8.00 Molar
same,Log10 TGI,SK-OV-3,<-8.00 Molar
same,Log10 G150,SW-620,<-8.00 Molar
same,Log10 TGI,SW-620,>-4.00 Molar
same,Log10 G150,U251,<-8.00 Molar
same,Log10 TGI,U251,-5.99 Molar
same,Log10 G150,tGROV1,<-8.00 Molar
same,Log10 TGI,tGROV1,-5.18 Molar
same,EC50,PANC-1,0.06 µM
same,EC50,CCD-27sk,0.196 µM
same,EC50,Thrombin,> 200 µM
same,cell viability,NF-κB/Luc 293 cells,did not affect cell viability
same,Caspase-3 activity,[1],activation of Caspase-3
same,PARP cleavage,PARP in Jurkat cells,cleavage of PARP within the Jurkat cells in a time-dependent fashion
same,EC50,[2],0.0036 µM
same,cell-viability,[2],82%
same,increase in the viability of LeTx-treated cells compared to LeTx treatment alone,[2],10 fold
same,EC50,"[2]; Mus musculus, RAW264.7",< 0.004 µM
same,VEGF-induced migration of multiple myeloma cells,[3],blocked vascular endothelial growth-factor (VEGF)-induced migration of multiple myeloma cells
C[C@H]1C(=O)N[C@@]2([C@@H](O)[C@@H]3C=CCCC3)C(=O)O[C@@]12C [Formula II-20],EC50,[4],0.002 to 0.011 µM
same,EC50,"[4]; read-out: EC50 Chymotrypsin-like, purified rabbit 20S proteasome, suc-LLVY-AMC",0.0077 ± 0.003 µM
